Test results taken from PubChem BioAssay (NCI).
“And” between values parts separate entries of the source, which are not always exact repeats. Equal values may be shown once.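 In this assay, cells in 96-well plates receive the compound at five concentrations for 48 hours. Endpoints are linearly interpolated between the surrounding concentrations. GI50 marks 50% less growth. TGI marks complete inhibition of growth.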

Columns and labels:
Experiment in all cases: NCI-60 cell line screen, 48 h
MCF7 breast = system: MCF7 breast
OVCAR-5 ovarian = system: OVCAR-5 ovarian
SK-OV-3 ovarian = system: SK-OV-3 ovarian
K-562 leukemia = system: K-562 leukemia
SNB-19 CNS = system: SNB-19 CNS
SF-268 CNS = system: SF-268 CNS
TK-10 renal = system: TK-10 renal
NCI-H23 lung = system: NCI-H23 lung
SF-295 CNS = system: SF-295 CNS
DMS 114 small cell lung = system: DMS 114 small cell lung

| Structure (SMILES) | TGI (MCF7 breast) [µM] | TGI (OVCAR-5 ovarian) [µM] | TGI (SK-OV-3 ovarian) [µM] | TGI (K-562 leukemia) | TGI (SNB-19 CNS) [µM] | TGI (SF-268 CNS) | TGI (TK-10 renal) | TGI (NCI-H23 lung) [µM] | TGI (SF-295 CNS) | TGI (DMS 114 small cell lung) [µM] | GI50 (TK-10 renal) [µM] |
| --- | --- | --- | --- | --- | --- | --- | --- | --- | --- | --- | --- |
| C[C@@H](C[C@H]1OC(C)(C)O[C@@H]1C(C)(C)O)[C@H]1CC=C2[C@]3(C)[C@H](O)C[C@H]4C(C)(C)[C@H](O)CC[C@]4(C)[C@H]3CC[C@]21C | 12.8 | 17.1 | 20.6 | 13.9 µM | 20.7 | 31.4 µM | 17.8 µM | 26.1 | 18.2 µM |  |  |
| Nc1[nH]c(=O)nc2snnc12 | > 100 | > 100 | > 100 | > 39.7 µM | > 100 | > 51.7 µM | > 83.9 µM | > 100 | > 100 µM |  |  |
| CC12CC(=O)Nc3ccccc3N1C(c1ccccc1)=NO2 (centres undefined) | > 100 | > 100 | > 100 | > 100 µM | > 100 | > 100 µM | > 100 µM | > 100 | > 100 µM |  |  |
| O=C1NC(Nc2ccccc2)=N/C1=C\c1c(Cl)cccc1Cl | 56 | > 100 | 49.7 | > 100 µM | > 100 | > 100 µM | 47.2 µM | > 100 | > 100 µM |  |  |
| Cc1cccc2[nH]c3c(c(O)cc4[nH]c5cccc(C)c5c(=O)c43)c(=O)c12 | > 10 | > 10 | > 10 | > 10 µM | > 10 | > 10 µM | > 10 µM | 8.5 | > 10 µM |  |  |
| O=[N+]([O-])c1ccc(C2ON=C(c3ccccc3)N2C23CC4CC(CC(C4)C2)C3)cc1 (centres undefined) | > 10 | > 10 | > 10 | > 10 µM | > 10 | > 10 µM | > 10 µM | > 10 | > 10 µM |  |  |
| O=c1cc(-c2ccccc2)[nH]c2cc(F)cc(F)c12 |  | > 100 | > 100 | > 100 µM |  | > 100 µM | > 100 µM | > 100 | > 100 µM | 93.2 |  |
| COc1c2c(nc3ccccc13)-c1cc(C(CC(=O)OC(C)(C)C)C(=O)OC(C)C)c(CO)c(=O)n1C2 (centres undefined) | 19.3 | > 100 | > 100 | > 100 µM | > 100 | > 100 µM | > 100 µM | > 100 | > 100 µM |  |  |
| O=c1nc2ccc([N+](=O)[O-])cc2[n+]([O-])[nH]1 | > 100 | > 100 | > 100 | > 100 µM | > 100 | > 100 µM | > 100 µM | > 100 | > 100 µM |  |  |
| C/C(=N\NC(=O)c1ccc(Cl)cc1)c1nc2ncccc2[nH]1 | > 100 | > 100 | 60.5 | > 100 µM | > 100 | > 100 µM | 64.9 µM | > 100 | > 100 µM |  |  |
| CCOC(=O)c1sc2c(c1OC(=O)c1cc(OC)c(OC)c(OC)c1)c(=O)n(-c1ccccc1)c(=S)n2-c1ccccc1 | > 100 | > 100 | > 100 | > 100 µM | > 100 | > 100 µM | > 100 µM | > 100 | > 100 µM |  |  |
| COc1cc(C(=O)N[C@H]2CCc3cc(OC)c(OC)c(OC)c3-c3ccc(SC)c(=O)cc32)cc(OC)c1OC |  | 25 | 0.0203 | 25 µM and > 100 µM | > 100 | 25 µM and 49 µM | 25 µM and > 100 µM |  | 0.0684 µM and 0.0328 µM | 0.144 | 16.1 |
| O=c1[nH]nc(-c2ccccc2)n1/N=C/c1ccccc1O | > 100 | > 100 | 53.9 | > 100 µM | > 100 | > 100 µM | > 100 µM | > 100 | > 100 µM |  |  |
| O=Cc1ccc(OC[C@H]2COC(=O)N2)cc1 | > 100 | > 100 | > 100 | > 100 µM | > 100 | > 100 µM | > 100 µM | > 100 | > 100 µM |  |  |
| O=C(Cn1cc(Br)c(=O)[nH]c1=O)c1ccc(-c2ccccc2)cc1 | > 100 | > 27.5 | > 100 | > 17.3 µM | 13.2 | 15.8 µM | > 100 µM | > 27.5 | > 100 µM |  |  |
| CC1CN=C(Nc2cccc(F)c2)S1 (centres undefined) | > 100 | > 100 | > 100 | > 100 µM | > 100 | > 100 µM | > 100 µM | > 100 | > 100 µM |  |  |
| Cc1ccc(-c2c(-c3ccccc3)[nH]c(C)c2C(=O)ONC(=O)c2ccccc2)cc1 | 17.3 | 32.3 | 30 | 6.72 µM | 20.1 | 7.31 µM | 18.2 µM | 17.4 | 4.17 µM |  |  |

| Structure (SMILES) | TGI (MCF7 breast) [µM] | TGI (OVCAR-5 ovarian) [µM] | TGI (SK-OV-3 ovarian) [µM] | TGI (K-562 leukemia) | TGI (SNB-19 CNS) [µM] | TGI (SF-268 CNS) | TGI (TK-10 renal) | TGI (NCI-H23 lung) [µM] | TGI (SF-295 CNS) | TGI (DMS 114 small cell lung) [µM] | GI50 (TK-10 renal) [µM] |
| --- | --- | --- | --- | --- | --- | --- | --- | --- | --- | --- | --- |
| COc1cc(/C=C2\C[C@H]3[C@@H]4CCC5=CC(=O)CC[C@]5(C)[C@H]4CC[C@]3(C)C2=O)cc(OC)c1OC | > 100 | > 100 | > 100 | > 100 µM | > 100 | > 100 µM | > 100 µM | > 100 | > 100 µM |  |  |
| N#CC1=C(N)N(/N=C/c2ccccc2)C(c2ccccc2)C1(C#N)C#N (centres undefined) | 58.6 | 39.4 | 26.3 | > 26 µM | > 54.6 | 46 µM | 16.7 µM | 33.5 | 39.5 µM |  |  |
| c1ccc2cc3c(NC4=NCCO4)cccc3cc2c1 | > 100 | > 100 | > 100 | > 100 µM | > 100 | > 100 µM | > 100 µM | > 100 | > 100 µM |  |  |
| Cc1cccc2oc3c(c(=O)c12)CC(O)C(C)(C)O3 (centres undefined) | > 100 | > 100 | > 100 | > 100 µM | > 100 | > 100 µM | > 100 µM | > 100 | > 100 µM |  |  |
| O=C(c1cccs1)c1nccc2c1cnc1ccccc12 | 72.5 | > 100 | > 100 | > 100 µM | > 100 | 98.6 µM | > 100 µM | > 100 | > 100 µM |  |  |
| C[C@H]1C2Cc3cc(O)ccc3[C@@]1(C)CCN2CCc1ccc(N)cc1 | 28.4 | > 100 | > 100 | 52.6 µM | > 100 | 52.6 µM | > 100 µM | > 100 | 53.7 µM |  |  |
| COc1ccc2oc(S(=O)(=O)N3CC(CCl)c4ccc(N)cc43)cc2c1 (centres undefined) | > 58.6 | > 100 | > 100 | > 60.1 µM | > 100 | > 100 µM | > 100 µM | > 100 | > 100 µM |  |  |
| N#[N+]c1c([O-])c2ccccc2c2ccccc12 | > 100 | > 100 | > 100 | > 100 µM | > 100 | > 100 µM | > 100 µM | > 100 | > 100 µM |  |  |
| COC(=O)c1c(CC(Cc2ccc3c(c2)CCCC3)C(=O)O)ccc2c1CCCC2 (centres undefined) | 84.1 | > 100 | > 100 | > 100 µM | > 100 | > 100 µM | > 100 µM | > 100 | > 100 µM |  |  |
| CC1(C)OC(=S)N(c2ccccc2)C12C=Cc1cc3ccccc3nc1S2 (centres undefined) |  | > 100 | > 100 | > 100 µM | > 100 | > 100 µM | > 100 µM | > 100 |  | > 100 |  |
| Nc1ccc(-c2nc3ccc(F)cc3s2)cc1Cl | > 100 | > 100 | > 100 | > 100 µM | > 100 | > 100 µM | > 100 µM | > 100 | > 89.2 µM |  |  |
| C=C1C[C@@H](O)[C@@H](Br)C(C)(C)[C@@]12C=CC(=O)CC2 | > 100 | 13.7 | > 100 | > 100 µM | > 100 | > 100 µM | > 100 µM | > 100 | > 100 µM |  |  |
| O=C1/C(=C\c2ccc(Br)cc2)CCCc2ccccc21 | > 100 | > 100 | > 100 | > 100 µM | 32.6 | 37.1 µM | 35.4 µM | 36.4 | 52.9 µM |  |  |
| COc1ccc(/C=C2\C[C@H]3[C@@H]4CCC5=C/C(=N/O)CC[C@]5(C)[C@H]4CC[C@]3(C)\C2=N\O)cc1 | 88.5 | > 100 | > 100 | > 100 µM | > 100 | > 100 µM | > 100 µM | > 100 | > 100 µM |  |  |
| O=[N+]([O-])C(/C(Cl)=C(\Cl)Br)=C(/Cl)SCc1ccccc1 | 11.2 | 26.2 | 33.7 | 4.12 µM | 38.8 | 9.76 µM | 10.8 µM | 14.9 | 35.9 µM |  |  |
| CCC(=O)N/S(=N/S(=O)(=O)c1ccccc1)C(Cl)(Cl)Cl (centres undefined) | > 100 | > 100 | > 100 | > 100 µM | > 100 | > 100 µM | > 100 µM | > 100 | > 100 µM |  |  |
| COc1cc(C(=O)Oc2c(C(C)=O)sc3c2c(=O)n(-c2ccccc2)c(=S)n3-c2ccccc2)cc(OC)c1OC | 44.8 | 43.2 | > 100 | > 100 µM | 68 | 77.4 µM | > 100 µM | 39.9 | 40.6 µM |  |  |
